Experimental data published in patent US8946273B2, “S-Triazolyl alpha-mercapto acetanilides as inhibitors of HIV reverse transcriptase” (priority 2011, dated 2015).
Read-outs that look alike come from different tables or passages of the source.

Tests used:
wild type HIV-1 = assay: microbe, parasite or virus in culture; assay type: cell-based, human immunodeficiency virus type 1 (HIV-1)
[1] = target: T1, wild-type HIV reverse transcriptase (Human immunodeficiency virus type 1 group M subtype B, UniProt P04585); assay: Activity on wild type reverse transcriptase (Table 1 IC50 WT); assay type: biochemical
T1 construct: wild-type and four mutant HIV reverse transcriptases
Experimental: Using similar methods as described above, 2-[5-bromo-4-(4-cyclopropylnaphthalen-1-yl)-4H-[1,2,4]triazol-3-ylsulfanyl]-N-(2-methyl-4-sulfamoylphenyeacetamide and 2-[5-bromo-4-(4-ethylnaphthalen-1-yl)-4H-[1,2,4]triazol-3-ylsulfanyl]-N-(2-chloro-4-sulfamoylphenyl)-acetamide were synthesized, as were the N-4-carbamyl analog, 2-[5-bromo-4-(4-ethyl-naphthalen-1-yl)-4H-[1,2,4]triazol-3-ylsulfanyl]-N-(2-chloro-4-carbamoylphenyl)-acetamide and the N-4-carboxyl analog. Each of the compounds was tested against a panel of mutant HIV reverse transcriptases, including 20 of the 22 of the mutants that are found in about 2% or more of the patient samples that are resistant to the most widely used non-nucleoside HIV-RT inhibitor efavirenz ((4S)-6-chloro-4-(cyclopropylethynyl)-1,4-dihydro-4-(trifluoromethyl)-2H-3,1-benzoxazin-2-one). […] In most cases both criteria were met. […] […].
Compounds of the invention were tested against the wild-type and four mutant HIV reverse transcriptases. The results are listed in Table 1 as EC50 (nM) and IC50 (nM). In the Table, A represents <50 nM, B is between 50 and 100 nM, and C is >100 nM. ND is not determined.

[2] = target: mutant HIV reverse transcriptases (Human immunodeficiency virus type 1, UniProt P12497, Y768C, cells depend on it); assay type: cell-based
[3] = target: mutant HIV reverse transcriptases (Human immunodeficiency virus type 1, UniProt P12497, Y775L, cells depend on it); assay type: cell-based
[4] = Human immunodeficiency virus 1, Hela-JC53, read-out: EC50 WT
[5] = read-out: EC50 WT, wild-type (WT) HIV-1
[6] = read-out: IC50 WT RT, wild-type (WT) RT

Row | Structure (SMILES) | EC50 (wild type HIV-1; [4]) | IC50 [1] | EC50 [2] | EC50 [3] | EC50 (wild type HIV-1; [5]) | IC50 [1, 6]
1 | Cc1cc(S(N)(=O)=O)ccc1NC(=O)CSc1nnc(C(F)F)n1-c1ccc(C)c2c1CCCC2 [compound 48] | < 50 nM | < 50 nM | < 50 nM | 50 to 100 nM |  | 
2 | Cc1ccc(-n2c(SCC(=O)Nc3ccc(S(=O)(=O)NCCC(=O)O)cc3Cl)nnc2C(F)F)c2c1CCCC2 [compound 58] | 50 to 100 nM | < 50 nM | > 100 nM | > 100 nM |  | 
3 | CCc1ccc(-n2c(Br)nnc2SCC(=O)Nc2ccc(C(=O)NCC(C)O)cc2Cl)c2ccccc12 (stereo not shown) [compound 128] | < 50 nM | < 50 nM | < 50 nM | < 50 nM |  | 
4 | Cc1cc(S(N)(=O)=O)ccc1NC(=O)CSc1nnc(Br)n1-c1c(Cl)cc(C2CCC2)c2ccccc12 [compound 92] | < 50 nM | < 50 nM | < 50 nM | < 50 nM |  | 
5 | O=C(CSc1nnc(Br)n1-c1ccc(C2CC2)c2ccccc12)Nc1ccc(C(=O)N[C@@H](Cc2ccc(O)cc2)C(=O)O)cc1Cl [compound 116] | 50 to 100 nM | < 50 nM | > 100 nM | > 100 nM |  | 
6 | CCOC(=O)[C@H](Cc1ccc(O)cc1)NC(=O)c1ccc(NC(=O)CSc2nnc(Br)n2-c2ccc(C3CC3)c3ccccc23)c(Cl)c1 [compound 114] | < 50 nM | 50 to 100 nM | < 50 nM | > 100 nM |  | 
7 | CCc1ccc(-n2c(Br)nnc2SCC(=O)Nc2ccc(C(=O)NCC(=O)O)cc2Cl)c2ccccc12 [compound 105] | < 50 nM | < 50 nM | < 50 nM | 50 to 100 nM |  | 
8 | Cc1cc(S(N)(=O)=O)ccc1NC(=O)CSc1nnc(C)n1-c1ccc(C)c2c1CCCC2 [compound 45] | < 50 nM | < 50 nM | < 50 nM | 50 to 100 nM |  | 
9 | CCOC(=O)CCNC(=O)c1ccc(NC(=O)CSc2nnc(Br)n2-c2ccc(CC)c3ccccc23)c(Cl)c1 [compound 107] | < 50 nM | < 50 nM | < 50 nM | > 100 nM |  | 
10 | O=C(CSc1nnc(Br)n1-c1c(Cl)cc(C2CCC2)c2ccccc12)Nc1ccc(C(=O)O)cc1Cl [compound 25] | < 50 nM | < 50 nM | < 50 nM | < 50 nM |  | 
11 | O=C(CSc1nnc(Br)n1-c1ccc(C2CC2)cc1OC(F)(F)F)Nc1ccc(S(=O)(=O)O)cc1Cl [compound 24] | > 100 nM | < 50 nM | > 100 nM | > 100 nM |  | 
12 | NS(=O)(=O)c1ccc(NC(=O)CSc2nnc(C(F)F)n2-c2ccc(C3CCC3)c3ccccc23)c(Cl)c1 [compound 100] |  |  | < 50 nM | < 50 nM | < 50 nM | < 50 nM
13 | CCc1ccc(-n2c(SCC(=O)Nc3ccc(C(=O)O)cc3C)nnc2C(F)F)c2ccccc12 [compound 3] | < 50 nM | < 50 nM | 50 to 100 nM | > 100 nM |  | 
14 | CCc1ccc(-n2c(CF)nnc2SCC(=O)Nc2ccc(S(N)(=O)=O)cc2Cl)c2c1CCCC2 [compound 67] | < 50 nM | < 50 nM | < 50 nM | < 50 nM |  | 
15 | CCc1ccc(-n2c(Br)nnc2SCC(=O)Nc2ccc(C(=O)NCC3CCCCC3)cc2Cl)c2ccccc12 [compound 124] | < 50 nM | < 50 nM | < 50 nM | < 50 nM |  | 
16 | CCc1ccc(-n2c(Br)nnc2SCC(=O)Nc2ccc(C(=O)N3CCC(O)CC3)cc2Cl)c2ccccc12 [compound 134] | < 50 nM | < 50 nM | < 50 nM | < 50 nM |  | 
17 | Cc1ccc(-n2c(SCC(=O)Nc3ccc(C(=O)O)cc3Cl)nnc2C(F)F)c2c1CCCC2 [compound 2] | < 50 nM | < 50 nM | < 50 nM | < 50 nM |  | 

Row | Structure (SMILES) | EC50 (wild type HIV-1; [4]) | IC50 [1] | EC50 [2] | EC50 [3] | EC50 (wild type HIV-1; [5]) | IC50 [1, 6]
18 | O=C(CSc1nnc(C(F)F)n1-c1ccc(C2CC2)c2ccccc12)Nc1ccc(C(=O)O)cc1Cl [compound 14] | < 50 nM | < 50 nM | < 50 nM | < 50 nM |  | 
19 | CCc1ccc(-n2c(Br)nnc2SCC(=O)Nc2ccc(C(=O)N3CCCCC3CO)cc2Cl)c2ccccc12 (stereo not shown) [compound 133] | < 50 nM | < 50 nM | < 50 nM | < 50 nM |  | 
20 | CCc1ccc(-n2c(CF)nnc2SCC(=O)Nc2ccc(S(=O)(=O)NC)cc2Cl)c2ccccc12 [compound 55] | < 50 nM | 50 to 100 nM | < 50 nM | 50 to 100 nM |  | 
21 | Cc1ccc2c(C)cc(C)c(-n3c(SCC(=O)Nc4ccc(S(N)(=O)=O)cc4Cl)nnc3C(F)F)c2n1 [compound 63] | < 50 nM | < 50 nM | < 50 nM | < 50 nM |  | 
22 | Cc1cc(C)c2ccccc2c1-n1c(SCC(=O)Nc2ccc(S(N)(=O)=O)cc2Cl)nnc1C(F)(F)F [compound 83] | < 50 nM | < 50 nM | < 50 nM | < 50 nM |  | 
23 | NS(=O)(=O)c1ccc(NC(=O)CSc2nncn2-c2ccc(C3CC3)c3ccccc23)c(Cl)c1 [compound 66] | < 50 nM | < 50 nM | < 50 nM | > 100 nM |  | 
24 | CCc1ccc(-n2c(SCC(=O)Nc3ccc(C(=O)O)cc3Cl)nnc2C(F)F)c2ccccc12 [compound 4] | < 50 nM | < 50 nM | < 50 nM | < 50 nM |  | 
25 | CCc1ccc(-n2c(Br)nnc2SCC(=O)Nc2ccc(C(=O)NCC3CCNCC3)cc2Cl)c2ccccc12 [compound 139] | < 50 nM | > 100 nM | < 50 nM | 50 to 100 nM |  | 
26 | CCc1ccc(-n2c(Br)nnc2SCC(=O)Nc2ccc(C(=O)NCC(O)CO)cc2Cl)c2ccccc12 (stereo not shown) [compound 120] | < 50 nM | < 50 nM | < 50 nM | < 50 nM |  | 
27 | CCc1ccc(-n2c(Br)nnc2SCC(=O)Nc2ccc(C(=O)NCCN(C)C)cc2Cl)c2ccccc12 [compound 119] | < 50 nM | < 50 nM | < 50 nM | < 50 nM |  | 
28 | CCc1cc(C2CC2)ccc1-n1c(Br)nnc1SCC(=O)Nc1ccc(C(=O)O)cc1Cl [compound 29] | < 50 nM | < 50 nM | < 50 nM | > 100 nM |  | 
29 | CCc1ccc(-n2c(Br)nnc2SCC(=O)Nc2ccc(C(=O)NCCN3CCCC3)cc2Cl)c2ccccc12 [compound 123] | < 50 nM | < 50 nM | < 50 nM | < 50 nM |  | 
30 | O=C(O)CNC(=O)c1ccc(NC(=O)CSc2nnc(Br)n2-c2ccc(C3CC3)c3ccccc23)c(Cl)c1 [compound 110] | < 50 nM | < 50 nM | > 100 nM | > 100 nM |  | 
31 | O=C(CSc1nnc(Br)n1-c1ccc(C2CC2)c2ccccc12)Nc1ccc(C(=O)O)cc1Cl [compound 11] |  |  | < 50 nM | < 50 nM | < 50 nM | < 50 nM
32 | NS(=O)(=O)c1ccc(NC(=O)CSc2nnc(C(F)F)n2-c2ccc(C3CCCC3)c3ccccc23)c(Cl)c1 [compound 68] | < 50 nM | < 50 nM | < 50 nM | > 100 nM |  | 
33 | CCc1ccc(-n2c(I)nnc2SCC(=O)Nc2ccc(S(N)(=O)=O)cc2Cl)c2ccccc12 [compound 70] | < 50 nM | < 50 nM | < 50 nM | < 50 nM |  | 
34 | CCCCCCNC(=O)c1ccc(NC(=O)CSc2nnc(Br)n2-c2ccc(CC)c3ccccc23)c(Cl)c1 [compound 122] | < 50 nM | < 50 nM | < 50 nM | 50 to 100 nM |  | 
